# Test results from US20210045385A1, “PYRIDAZINONE-SUBSTITUTED KETOXIMES AS HERBICIDES” (FMC Corporation, priority 2018, published 2021).
# Experiments:
# Format in all cases: in vivo
# kochia (Bassia scoparia) [1] = assay: Test C preemergence, visual plant response rating; details: Test C, 0 is no effect, 100 is complete control
# Summary of the method: (§1)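 Compounds in a non-phytotoxic solvent with surfactant were applied as a directed soil spray preemergence or to 2–10 cm, one- to two-leaf plants postemergence, in loam–sand soil. After about 10 d in a greenhouse, injury was visually rated against untreated controls on a 0–100 scale (100 = complete control).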
# [2] = system: ragweed (common ragweed, Ambrosia artemisiifolia); assay: Test C preemergence, visual plant response rating; details: Test C, 0 is no effect, 100 is complete control
# Summary of the method: as §1
# [3] = system: Italian ryegrass (Lolium mutiflorum); assay: Test C preemergence, visual plant response rating; details: Test C, 0 is no effect, 100 is complete control
# Summary of the method: as §1
# [4] = system: pigweed (Amaranthus retroflexus); assay: Test C preemergence, visual plant response rating; details: Test C, 0 is no effect, 100 is complete control
# Summary of the method: as §1
# [5] = system: barnyardgrass (Echinochloa crus-galli); assay: Test C preemergence, visual plant response rating; details: Test C, 0 is no effect, 100 is complete control
# Summary of the method: as §1
# [6] = system: foxtail, giant (giant foxtail, Setaria faberi); assay: Test C preemergence, visual plant response rating; details: Test C, 0 is no effect, 100 is complete control
# Summary of the method: as §1
# kochia (Bassia scoparia) [7] = assay: Test C postemergence, visual plant response rating
# Summary of the method: as §1
# [8] = system: ragweed (common ragweed, Ambrosia artemisiifolia); assay: Test C postemergence, visual plant response rating
# Summary of the method: as §1
# [9] = system: galium (catchweed bedstraw, Galium aparine); assay: Test C postemergence, visual plant response rating
# Summary of the method: as §1
# [10] = system: blackgrass (Alopecurus myosuroides); assay: Test C postemergence, visual plant response rating
# Summary of the method: as §1
# [11] = system: wheat (Triticum aestivum); assay: Test C postemergence, visual plant response rating
# Summary of the method: as §1
# [12] = system: Italian ryegrass (Lolium mutiflorum); assay: Test C postemergence, visual plant response rating
# Summary of the method: as §1
# [13] = system: pigweed (Amaranthus retroflexus); assay: Test C postemergence, visual plant response rating
# Summary of the method: as §1
# corn (Zea mays) = assay: Test C postemergence, visual plant response rating
# Summary of the method: as §1
# [14] = system: barnyardgrass (Echinochloa crus-galli); assay: Test C postemergence, visual plant response rating
# Summary of the method: as §1
# [15] = system: foxtail, giant (giant foxtail, Setaria faberi); assay: Test C postemergence, visual plant response rating
# Summary of the method: as §1
# [16] = system: sedge umbrella (small-flower umbrella sedge, Cyperus difformis); assay: Test D flooded paddy test, visual plant response rating; details: 250 g ai/ha, scale 0 to 100 (0 no effect, 100 complete control), 13 to 15 d
# Summary of the method: (§2)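 Plants were grown to the 2-leaf stage, pots flooded to 3 cm above soil, and compound applied directly into the paddy water, with the depth held throughout. After 13 to 15 d in a greenhouse, response was rated visually against untreated controls on a 0–100 scale (0 no effect, 100 complete control).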
# rice (Oryza sativa) = assay: as above; details: 250 g ai/ha, scale 0 to 100 (0 no effect, 100 complete control), 13 to 15 d
# Summary of the method: as §2
# [17] = system: barnyardgrass (Echinochloa crus-galli); assay: as above; details: 250 g ai/ha, scale 0 to 100 (0 no effect, 100 complete control), 13 to 15 d
# Summary of the method: as §2
# [18] = system: duck salad (Heteranthera limosa); assay: as above; details: 250 g ai/ha, scale 0 to 100 (0 no effect, 100 complete control), 13 to 15 d
# Summary of the method: as §2
# [19] = Test C, postemergence, 125 g ai/ha
SMILES,Kochia plant response rating (0 to 100 scale) (kochia (Bassia scoparia) [1]; 31 g ai/ha),Kochia plant response rating (0 to 100 scale) (kochia (Bassia scoparia) [1]; 125 g ai/ha),Ragweed plant response rating (0 to 100 scale) ([2]; 31 g ai/ha),Ragweed plant response rating (0 to 100 scale) ([2]; 125 g ai/ha),"Ryegrass, Italian plant response rating (0 to 100 scale) ([3]; 31 g ai/ha)","Ryegrass, Italian plant response rating (0 to 100 scale) ([3]; 125 g ai/ha)",Pigweed plant response rating (0 to 100 scale) ([4]; 31 g ai/ha),Pigweed plant response rating (0 to 100 scale) ([4]; 125 g ai/ha),Barnyardgrass plant response rating (0 to 100 scale) ([5]; 31 g ai/ha),Barnyardgrass plant response rating (0 to 100 scale) ([5]; 125 g ai/ha),"Foxtail, Giant plant response rating (0 to 100 scale) ([6]; 31 g ai/ha)","Foxtail, Giant plant response rating (0 to 100 scale) ([6]; 125 g ai/ha)","Kochia plant response rating (0 to 100 scale) (kochia (Bassia scoparia) [7]; Postemergence, 31 g ai/ha)",Kochia plant response rating (0 to 100 scale) (kochia (Bassia scoparia) [7]; [19]),"Ragweed plant response rating (0 to 100 scale) ([8]; Postemergence, 31 g ai/ha)","Ragweed plant response rating (0 to 100 scale) [8, 19]","Galium plant response rating (0 to 100 scale) ([9]; Postemergence, 31 g ai/ha)","Galium plant response rating (0 to 100 scale) [9, 19]","Blackgrass plant response rating (0 to 100 scale) ([10]; Postemergence, 31 g ai/ha)","Blackgrass plant response rating (0 to 100 scale) [10, 19]",further results
CO/N=C(/c1cccc(/C=C\Cl)c1)c1c(O)c(C)nn(C)c1=O [Compound 287],0,0,0,20,50,90,0,0,40,90,10,40,0,10,20,50,50,70,10,30,"Wheat plant response rating (0 to 100 scale) ([11]; Postemergence, 31 g ai/ha): 0; Wheat plant response rating (0 to 100 scale) [11, 19]: 0; Ryegrass, Italian plant response rating (0 to 100 scale) ([12]; Postemergence, 31 g ai/ha): 20; Ryegrass, Italian plant response rating (0 to 100 scale) [12, 19]: 80; Pigweed plant response rating (0 to 100 scale) ([13]; Postemergence, 31 g ai/ha): 10; Pigweed plant response rating (0 to 100 scale) [13, 19]: 20; Corn plant response rating (0 to 100 scale) (corn (Zea mays); Postemergence, 31 g ai/ha): 0; Corn plant response rating (0 to 100 scale) (corn (Zea mays); [19]): 10; Barnyardgrass plant response rating (0 to 100 scale) ([14]; Postemergence, 31 g ai/ha): 0; Barnyardgrass plant response rating (0 to 100 scale) [14, 19]: 60; Foxtail, Giant plant response rating (0 to 100 scale) ([15]; Postemergence, 31 g ai/ha): 10; Foxtail, Giant plant response rating (0 to 100 scale) [15, 19]: 70; Plant response rating, Sedge, Umbrella (Flood) [16]: 0; Plant response rating, Rice (Flood) (rice (Oryza sativa)): 0; Plant response rating, Barnyardgrass (Flood) [17]: 0; Plant response rating, Ducksalad (Flood) [18]: 0"
CCO/N=C(\c1c(O)c(C)nn(C)c1=O)c1cccc2cc(Cl)ccc12 [Compound 273],0,40,20,20,0,40,90,90,40,80,80,90,40,60,90,100,100,100,80,90,"Wheat plant response rating (0 to 100 scale) ([11]; Postemergence, 31 g ai/ha): 0; Wheat plant response rating (0 to 100 scale) [11, 19]: 0; Ryegrass, Italian plant response rating (0 to 100 scale) ([12]; Postemergence, 31 g ai/ha): 10; Ryegrass, Italian plant response rating (0 to 100 scale) [12, 19]: 60; Pigweed plant response rating (0 to 100 scale) ([13]; Postemergence, 31 g ai/ha): 90; Pigweed plant response rating (0 to 100 scale) [13, 19]: 100; Corn plant response rating (0 to 100 scale) (corn (Zea mays); Postemergence, 31 g ai/ha): 0; Corn plant response rating (0 to 100 scale) (corn (Zea mays); [19]): 30; Barnyardgrass plant response rating (0 to 100 scale) ([14]; Postemergence, 31 g ai/ha): 40; Barnyardgrass plant response rating (0 to 100 scale) [14, 19]: 80; Foxtail, Giant plant response rating (0 to 100 scale) ([15]; Postemergence, 31 g ai/ha): 100; Foxtail, Giant plant response rating (0 to 100 scale) [15, 19]: 100; Plant response rating, Sedge, Umbrella (Flood) [16]: 95; Plant response rating, Rice (Flood) (rice (Oryza sativa)): 85; Plant response rating, Barnyardgrass (Flood) [17]: 90; Plant response rating, Ducksalad (Flood) [18]: 95"
CCCCON=C(c1cc(Cl)cc(Cl)c1Cl)c1c(O)c(C)nn(C)c1=O [Compound 268],0,0,10,60,20,90,0,0,30,70,70,100,10,20,70,100,20,50,0,20,"Wheat plant response rating (0 to 100 scale) ([11]; Postemergence, 31 g ai/ha): 0; Wheat plant response rating (0 to 100 scale) [11, 19]: 20; Ryegrass, Italian plant response rating (0 to 100 scale) ([12]; Postemergence, 31 g ai/ha): 60; Ryegrass, Italian plant response rating (0 to 100 scale) [12, 19]: 100; Pigweed plant response rating (0 to 100 scale) ([13]; Postemergence, 31 g ai/ha): 10; Pigweed plant response rating (0 to 100 scale) [13, 19]: 20; Corn plant response rating (0 to 100 scale) (corn (Zea mays); Postemergence, 31 g ai/ha): 0; Corn plant response rating (0 to 100 scale) (corn (Zea mays); [19]): 30; Barnyardgrass plant response rating (0 to 100 scale) ([14]; Postemergence, 31 g ai/ha): 50; Barnyardgrass plant response rating (0 to 100 scale) [14, 19]: 60; Foxtail, Giant plant response rating (0 to 100 scale) ([15]; Postemergence, 31 g ai/ha): 60; Foxtail, Giant plant response rating (0 to 100 scale) [15, 19]: 90; Plant response rating, Sedge, Umbrella (Flood) [16]: 0; Plant response rating, Rice (Flood) (rice (Oryza sativa)): 0; Plant response rating, Barnyardgrass (Flood) [17]: 0; Plant response rating, Ducksalad (Flood) [18]: 0"
